For 34 compounds, IC50 results are on record in patent publication US10703764B2, “Benzopiperazine compositions as BET bromodomain inhibitors” (FORMA Therapeutics, Inc., priority 2013, dated 2020).

Test [1] concerns the target T1, BRD4 BD1 (Homo sapiens, UniProt O60885).
T1 construct: made in house
Description: AlphaScreen binding assay, BRD4 Bromodomain 1. The gist of the method: (§1)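 An AlphaScreen competition format was used with His-BRD4 BD1 or BD2 and biotin-H4 K5/8/12/16-acetyl peptide, each at matched final levels of 50 nM (BD1) or 100 nM (BD2). Incubation in HEPES/NaCl buffer with 0.1% BSA and 0.01% Triton X-100 ran ≥1 h before IC50 determination.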

In test [2] the target is T2, BRD4 BD2 (Homo sapiens, UniProt O60885).
T2 construct: made in house
The test is described as follows: AlphaScreen binding assay, BRD4 Bromodomain 2. In outline: as §1
For orientation: Bead proximity is the source of the signal in Alpha formats.

For test [3], the system named is MV4-11 cells. Description: Oncology cell growth assay (3-day proliferation, CellTiter-Glo). The conditions noted are these: Homo sapiens, MV4-11, 72 h, AML cell line MV4-11, 72 hours, compounds grouped by IC50 range, read-out: MV4-11 IC50 (inhibition of proliferation, gIC50). In kind it is cell-based. In outline: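 MV4-11 AML cells (RPMI 1640, 10% FBS) plated at 3000 cells/well and exposed 72 h to compound at final 10 to 0.0045 μM (3-fold series). Viability read by CellTiter-Glo luminescence; gIC50 from four-parameter logistic fit between DMSO control and no-cell background.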
(In general: In ATP-based viability assays light output follows the ATP content of the culture.)

pIC50: −log10 of the molar value.

In the case of `CCOC(=O)N1C[C@H](C)N(C(C)=O)c2ccc(-c3ccc(NS(C)(=O)=O)c(C)c3)cc21` [Example I-1173], the pIC50 in test [1] was 6.00 to 7.00; in test [2] it was 6.30 to 7.30; in test [3] it was 6.30 to 7.00.

`CCOC(=O)N1C[C@H](C)N(C(C)=O)c2ccc(-c3ccc(S(C)(=O)=O)cc3)cc21` [Example I-224]: the pIC50 in test [1] is 6.00 to 7.00; in test [2], 6.30 to 7.30; in test [3], less than 6.30.

For `COC(=O)N1c2ccc(-c3cnn(CC4COC4)c3)cc2N(C(=O)OC(C)C)C[C@@H]1C` [Example I-644], the pIC50 was 6.00 to 7.00 in test [1], 6.30 to 7.30 in test [2] and less than 6.30 in test [3].

On to `COC(=O)N1c2ccc(-c3ccc(C(=O)N4CC(O)C4)cc3)cc2N(C(=O)OC(C)C)C[C@@H]1C` [Example I-579], for which the results for the pIC50 in test [1], in test [2] and in test [3] were 6.00 to 7.00, 6.30 to 7.30 and 6.30 to 7.00, respectively.

For the compound `CC(=O)N1c2ccc(-c3cnn(C4CS(=O)(=O)C4)c3)cc2N(C(=O)OC2CCC2)C[C@@H]1C` [Example I-98, cyclobutyl (3S)-4-acetyl-7-[1-(1,1-dioxo-1λ^6-thietan-3-yl)-1H-pyrazol-4-yl]-3-methyl-1,2,3,4-tetrahydroquinoxaline-1-carboxylate], the results for the pIC50 in test [1], in test [2] and in test [3] were 6.00 to 7.00, 6.30 to 7.30 and 6.30 to 7.00, respectively.

`CC(=O)N1c2ccc(-c3ccc(S(N)(=O)=O)cc3)cc2N(C(=O)OC2CCCCC2)C[C@@H]1C` [Example I-1233]: the pIC50 was 6.00 to 7.00 in test [1], 6.30 to 7.30 in test [2] and 6.30 to 7.00 in test [3].

`CC(=O)N1c2ccc(-c3cnn(CCO)c3)cc2N(C(=O)OCCC(F)(F)F)C[C@@H]1C` [Example I-81, (S)-3,3,3-trifluoropropyl 4-acetyl-7-(1-(2-hydroxyethyl)-1H-pyrazol-4-yl)-3-methyl-3,4-dihydroquinoxaline-1(2H)-carboxylate]: the pIC50 in test [1] is 5.00 to 6.00; in test [2], less than 6.30; in test [3] it was 6.30 to 7.00.

As for `CC(=O)N1c2ccc(-c3cnn(CCN4CCCS4(=O)=O)c3)cc2N(C(=O)C2CC2)C[C@@H]1C` [Example I-659], the values for the pIC50 in test [1], in test [2] and in test [3] were 6.00 to 7.00, 6.30 to 7.30 and less than 6.30, respectively.

On to `CC(=O)N1c2ccc(-c3ccc4c(c3)N(C)S(=O)(=O)N4)cc2N(C(=O)C2CC2)C[C@@H]1C` [Example I-1175], for which the pIC50 was 6.00 to 7.00 in test [1], 6.30 to 7.30 in test [2] and less than 6.30 in test [3].

For the compound `CC(=O)N1c2ccc(-c3cnn(C4CNC4)c3)cc2N(C(=O)OC2CC(F)(F)C2)C[C@@H]1C` [Example I-152, (S)-3,3-difluorocyclobutyl 4-acetyl-7-(1-(azetidin-3-yl)-1H-pyrazol-4-yl)-3-methyl-3,4-dihydroquinoxaline-1(2H)-carboxylate], the pIC50 in test [1] was 6.00 to 7.00; in test [2] it was more than 7.30; in test [3], 6.30 to 7.00.

For the compound `CC(=O)N1c2ccc(-c3cnn(C4CCCS(=O)(=O)C4)c3)cc2N(C(=O)OC2CCC2)C[C@@H]1C` (stereo partly drawn) [Example I-158, cyclobutyl (3S)-4-acetyl-7-[1-(1,1-dioxo-16-thian-3-yl)-1H-pyrazol-4-yl]-3-methyl-1,2,3,4-tetrahydroquinoxaline-1-carboxylate], the pIC50 in test [1] is 6.00 to 7.00; in test [2], more than 7.30; in test [3], 6.30 to 7.00.

`CC(=O)N1c2ccc(-c3ccc(S(=O)(=O)N4CCCC4)cc3)cc2N(C(=O)c2ccco2)C[C@@H]1C` [Example I-286]: the pIC50 in test [1] was 6.00 to 7.00; in test [2] it was less than 6.30; in test [3] it was more than 7.00.

With `COC(=O)N1c2ccc(-c3cnn(CCO)c3)cc2N(C(=O)OC(C)C)C[C@@H]1C` [Example I-324], the pIC50 is 6.00 to 7.00 in test [1], 6.30 to 7.30 in test [2] and 6.30 to 7.00 in test [3].

As for `CC(=O)N1c2ccc(-c3cccc(NS(C)(=O)=O)c3)cc2N(C(=O)OC2CCCCC2)C[C@@H]1C` [Example I-1221], the pIC50 in test [1] is 6.00 to 7.00; in test [2], 6.30 to 7.30; in test [3], 6.30 to 7.00.

As to `CC(=O)N1c2ccc(-c3ccc(N4CCOCC4)cc3)cc2N(C(=O)OC2CCCCC2)C[C@@H]1C` [Example I-1229], the figures for the pIC50 in test [1], in test [2] and in test [3] were 6.00 to 7.00, 6.30 to 7.30 and 6.30 to 7.00, respectively.

Consider `CC(=O)N1c2ccc(-c3cnn(CCO)c3)cc2N(C(=O)N(C)c2ccccc2)C[C@@H]1C` [Example I-1212], for which the pIC50 in test [1] was less than 5.00; in test [2], less than 6.30; in test [3], less than 6.30.

With `CC(=O)N1c2ccc(-c3cccc(S(=O)(=O)N(C)C)c3)cc2N(C(=O)OC2CCCCC2)C[C@@H]1C` [Example I-1223], the pIC50 in test [1] was 6.00 to 7.00; in test [2] it was 6.30 to 7.30; in test [3], 6.30 to 7.00.

With `CC(=O)N1c2ccc(-c3cccc(NS(=O)(=O)c4ccc(C)cc4)c3)cc2N(C(=O)c2ccco2)C[C@@H]1C` [Example I-859], the figures for the pIC50 in test [1], in test [2] and in test [3] were 6.00 to 7.00, more than 7.30 and 6.30 to 7.00, respectively.

Turning to `CNS(=O)(=O)c1cccc(-c2ccc3c(c2)N(C(=O)OC(C)C)C[C@H](C)N3C(C)=O)c1` [Example I-1107], the figures for the pIC50 in test [1], in test [2] and in test [3] were 6.00 to 7.00, 6.30 to 7.30 and 6.30 to 7.00, respectively.

For `CC(=O)N1c2ccc(-c3ccc(S(=O)(=O)n4cccn4)cc3)cc2N(C(=O)OC(C)C)C[C@@H]1C` [Example I-1118], the results for the pIC50 in test [1], in test [2] and in test [3] were 5.00 to 6.00, less than 6.30 and less than 6.30, respectively.

With `C[C@H]1CN(C(=O)OC2CCCC2)c2cc(-c3cnn(C4CC4)c3)ccc2N1C(=O)C1CC1` [Example I-41, (S)-cyclopentyl 4-(cyclopropanecarbonyl)-7-(1-cyclopropyl-1H-pyrazol-4-yl)-3-methyl-3,4-dihydroquinoxaline-1 (2H)-carboxylate], the pIC50 in test [1] is 6.00 to 7.00; in test [2], 6.30 to 7.30; in test [3] it was 6.30 to 7.00.

In the case of `CC(=O)N1c2ccc(-c3cccc(S(=O)(=O)C4CC4)c3)cc2N(C(=O)C2CCC2)C[C@@H]1C` [Example I-1087], the pIC50 is 5.00 to 6.00 in test [1], 6.30 to 7.30 in test [2] and less than 6.30 in test [3].

As for `COC(=O)N1c2ccc(-c3cnn(CC(=O)N(C)C)c3)cc2N(C(=O)OC(C)C)C[C@@H]1C` [Example I-320], the pIC50 in test [1] was 6.00 to 7.00; in test [2] it was 6.30 to 7.30; in test [3], less than 6.30.

As for `CC(=O)N1c2ccc(-c3ccc4c(c3)CCN4S(C)(=O)=O)cc2N(C(=O)C2CC2)C[C@@H]1C` [Example I-352], the pIC50 in test [1] was more than 7.00; in test [2] it was more than 7.30; in test [3] it was more than 7.00.

As to `CC(=O)N1c2ccc(-c3cnn(C4CNC4)c3)cc2N(C(=O)OC2CCCCC2)C[C@@H]1C` [Example I-1304], the pIC50 in test [1] was more than 7.00; in test [2] it was more than 7.30; in test [3], more than 7.00.

As for `CC(=O)Nc1cc2c(cc1Br)N(C(=O)OC(C)C)C[C@H](C)N2C(C)=O` [Example I-203, Isopropyl (S)-6-acetamido-4-acetyl-7-bromo-3-methyl-3,4-dihydro quinoxaline-1(2H)-carboxylate], the figures for the pIC50 in test [1], in test [2] and in test [3] were 5.00 to 6.00, less than 6.30 and less than 6.30, respectively.

Consider `COC(=O)N1c2ccc(-c3cnn(C(C)(C)CO)c3)cc2N(C(=O)Oc2ccc(F)cc2)C[C@@H]1C` [Example I-1024], for which the pIC50 is 6.00 to 7.00 in test [1], more than 7.30 in test [2] and 6.30 to 7.00 in test [3].

Regarding `CC(=O)N1c2ccc(-c3ccc(N(C)S(C)(=O)=O)cc3)cc2N(C(=O)Oc2cccnc2)C[C@@H]1C` [Example I-1292], the pIC50 in test [1] was 6.00 to 7.00; in test [2], 6.30 to 7.30; in test [3], 6.30 to 7.00.

`CCS(=O)(=O)Nc1cccc(-c2ccc3c(c2)N(C(=O)c2ccco2)C[C@H](C)N3C(C)=O)c1` [Example I-876]: the pIC50 in test [1] was 6.00 to 7.00; in test [2] it was more than 7.30; in test [3] it was 6.30 to 7.00.

Turning to `CC(=O)N1c2ccc(-c3ccc(N4CCCS4(=O)=O)cc3)cc2N(C(=O)Oc2ccc(F)cc2)C[C@@H]1C` [Example I-1021], the pIC50 in test [1] was 6.00 to 7.00; in test [2], 6.30 to 7.30; in test [3] it was more than 7.00.

For the compound `CC(=O)N1c2ccc(-c3ccc(N4CCCS4(=O)=O)cc3)cc2N(C(=O)Oc2cccnc2)C[C@@H]1C` [Example I-1286], the results for the pIC50 in test [1], in test [2] and in test [3] were 6.00 to 7.00, 6.30 to 7.30 and 6.30 to 7.00, respectively.

In the case of `CC(=O)N1c2ccc(-c3ccc(S(C)(=O)=O)cc3)cc2N(C(=O)C2CCC2)C[C@@H]1C` [Example I-245], the figures for the pIC50 in test [1], in test [2] and in test [3] were 5.00 to 6.00, 6.30 to 7.30 and less than 6.30, respectively.

Regarding `CC(=O)N1c2ccc(-c3cnn(C4COC4)c3)cc2N(C(=O)OCC2CCC2)C[C@@H]1C` [Example I-60, (S)-cyclobutylmethyl 4-acetyl-3-methyl-7-(1-(oxetan-3-yl)-1H-pyrazol-4-yl)-3,4-dihydroquinoxaline-1(2H)-carboxylate], the pIC50 in test [1] is 6.00 to 7.00; in test [2] it was 6.30 to 7.30; in test [3], 6.30 to 7.00.

Regarding `CC(=O)N1c2ccc(-c3cnn(C4COC4)c3)cc2N(C(=O)OCC(C)(C)F)C[C@@H]1C` [Example I-77, (S)-2-fluoro-2-methylpropyl 4-acetyl-3-methyl-7-(1-(oxetan-3-yl)-1H-pyrazol-4-yl)-3,4-dihydroquinoxaline-1(2H)-carboxylate], the figures for the pIC50 in test [1], in test [2] and in test [3] were more than 7.00, more than 7.30 and 6.30 to 7.00, respectively.
